“Also recorded” adds a separate entry of the source.
Legend:
[1] = tested on: ovariectomized (ovx) mice; assay: Effects of estrogen exposure on gonadal fat in ovariectomized WT, ERKO, BERKO and DERKO mice; type: in vivo; settings: for gonadal fat mass, WT mice: ovx WT mice
Description: Male double heterozygous (ERα^+/−β^+/−) mice were mated with female double heterozygous (ERα^+/−β^+/−) mice, resulting in ERα^+/+β^+/+ wildtype (WT); ERα^−/−β^+/+=ERKO, ERα^+/+β^−/−=BERKO and ERα^−/−β^−/−=DERKO offsprings (Vidal O et al (2000) Proc Natl Sci USA, 97, 5474). The diet, housing and genetic background was as previously described in Vidal O et al (2000) supra. In the estrogen exposure experiments all mice were ovariectomized. Ovaries were removed after a flank incision and the incisions were closed with metallic clips. Mice were left to recover for four days after ovariectomy before start of experiments. After recovery mice were injected s.c with 2.3 μg/mouse/day of 17β-estradiol benzoate (Sigma, St Louis, Mo., USA) for 5 days/week during three weeks time. Control mice received injections of vehicle oil (olive oil, Apoteksbolaget, Göteborg, Sweden).
Ovariectomized (ovx) mice, lacking one or both of the two known ERs, were given estrogen and the effects on gonadal fat was studied. The effects of estrogen in mice with both ERα and ERβ inactivated (DERKO) were compared with the effects of estrogen in wild type (WT) mice.
In Table 2, the left part describes the effects of estrogen on fat in ovx wild type (WT) and DERKO mice. Three months old ovx mice were treated for three weeks with 2.3 μg/mouse/day of 17β-estradiol 5 days/week or olive oil as control (=vehicle). n=7 for WT vehicle, n=7 for WT estrogen, n=7 for DERKO vehicle, n=8 for DERKO estrogen. Values are given as means±SEM and expressed as % increase over vehicle treated animal. **=p<0.01 compared with vehicle treated mice. ++=p<0.01 effect of estrogen in DERKO compared with the effect of estrogen in WT, Student t-test. The right part of Table 2 describes the calculation of estrogen receptor α/β dependent and independent effects of estrogen. The effects of estrogen in WT and DERKO mice, as described in the left part of the table, were used for the calculation of the proportion of ERα/β dependent and independent effects of estrogen. The values are given as % of the total effect seen in WT mice.

orx male rats = settings: cited from earlier work
[2] = calculated from effects in WT and DERKO mice, % of the total effect seen in WT mice

Compound | ERα/β Dependent effect of estrogen on Fat Weight [1, 2] [%] | ERα/β Independent effect of estrogen on Fat Weight [1, 2] [%] | gonadal fat mass, BERKO mice ([1]; ovx BERKO mice, estrogen treatment, result in words (FIG. 6)) | gonadal fat mass, DERKO mice ([1]; ovx DERKO mice, estrogen treatment, result in words (FIG. 6)) | Effect of Estrogen (%) on Fat Weight, DERKO ([1]; ovx DERKO mice, three months old, 2.3 μg/mouse/day s.c. 5 days/week for three weeks, mean±SEM, % increase over vehicle treated animal) | gonadal fat mass, WT mice ([1]; estrogen treatment, result in words (FIG. 6)) | gonadal fat mass, WT mice ([1]; estrogen treatment, result in words (FIG. 6), listed as estrogen) | body weight (orx male rats) | food intake (orx male rats) | total serum cholesterol (orx male rats)
17β-estradiol benzoate [Estrogen] | 93 | 7 | reduced; also recorded: hyperresponsiveness | not | −2.0 ± 5.2++ % | reduction of gonadal fat mass | reduced | – | – | –
Oc1ccc2c(c1)CC[C@H](c1ccccc1)[C@@H]2c1ccc(OCCN2CCCC2)cc1 [lasofoxifene] | – | – | – | – | – | – | – | decreased | decreased | decreased

— patent US20060211671A1, “Estrogen receptors” (priority 2001, published 2006)
